Data from patent US20030216471A1, “Retinoid formulations for aerosolization and inhalation” (priority 2003, published 2003).
“Also recorded” adds a separate entry of the source. Read-outs that look alike come from different tables or passages of the source. Marks after values point to notes of the source that are not given here.

Key:
[1] = doses used in the MD Anderson study, based on pharmacokinetic data; cited from earlier work
albumin = albumin (Homo sapiens, UniProt P02768); details: systemic administration, reported; cited from earlier work
Sequence of albumin (P02768 25-609, species assumed): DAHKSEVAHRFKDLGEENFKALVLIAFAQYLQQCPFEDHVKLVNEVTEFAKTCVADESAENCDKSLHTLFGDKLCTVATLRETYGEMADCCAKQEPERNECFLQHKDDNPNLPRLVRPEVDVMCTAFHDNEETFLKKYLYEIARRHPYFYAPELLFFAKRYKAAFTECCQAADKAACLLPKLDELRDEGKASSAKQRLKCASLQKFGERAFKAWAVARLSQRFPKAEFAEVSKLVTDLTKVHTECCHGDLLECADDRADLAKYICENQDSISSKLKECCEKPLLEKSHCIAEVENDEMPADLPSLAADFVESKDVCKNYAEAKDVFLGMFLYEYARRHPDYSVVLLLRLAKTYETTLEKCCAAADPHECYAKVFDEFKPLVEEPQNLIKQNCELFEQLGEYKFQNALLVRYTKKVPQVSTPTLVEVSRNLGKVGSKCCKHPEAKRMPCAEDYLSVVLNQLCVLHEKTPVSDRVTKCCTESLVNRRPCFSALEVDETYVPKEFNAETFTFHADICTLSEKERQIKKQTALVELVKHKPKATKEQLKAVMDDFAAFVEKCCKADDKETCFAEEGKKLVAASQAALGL

RAR α [2] = experiment: RAR induction in lungs of A/J mice exposed to isotretinoin aerosol, RAR α; format: in vivo, mouse; details: inhaled mid dose, urethane-treated A/J mice
Experimental: (§4) Antibodies: Polyclonal antibodies to RARα, β and γ (Santa Cruz Biotechnology Inc., San Francisco, Calif.) were used with a BM Chemiluminescence Western Blotting Kit (Mouse/Rabbit) (Boehringer Mannheim Corporation, Indianapolis).
(§5) Experimental Design: Five lungs each from the urethane-treated vehicle, low dose, and mid dose animals were snap frozen in liquid nitrogen and stored at −70° C. for determination of RARs α, β and γ by Western Blot Analysis. […] The lungs were homogenized and the RARs were determined by standard Western Blotting (21, 22).
(§6) Samples: Lung tissue was collected, frozen on dry ice and kept at −70° C. until used. A 500 mg portion was diced in small pieces and homogenized in 300 μl of cold PBS using a hand held homogenizer for 2-3 min. Samples were centrifuged at 500 rpm for 5 min or until the supernatant was clear. The pellet was suspended in 400 μl of cold Buffer A [2 μl 0.5 M EDTA, 10 μl mM EGTA, 50 μl 100 mM PMSF, 10 μl 1M DTT, 10 ml (10 mM HEPES pH 7.9+10 mM KCl)], and left at ice temperature for 15 min. A 25 μl volume of 10% solution of NP−40 was added and the samples were mixed in a vortex vigorously for 10 sec. Samples were centrifuged at 14,000 rpm for 1 min at 4° C. and the pellet was treated once more in this fashion. […]

RAR β [3] = experiment: RAR induction in lungs of A/J mice exposed to isotretinoin aerosol, RAR β; format: in vivo, mouse; details: inhaled mid dose, urethane-treated A/J mice
Experimental: as §4, §5, §6

RAR α [4] = experiment: Western blot of rat lung, inhaled 13-cis RA (experiment A), RAR α; format: in vivo; details: for upregulation of lung tissue RAR (first named, α): daily deposited dose 6.4 mg/kg/day
Experimental: (§1) The experimental groups were as follows (Table 4):1. Vehicle (10/9 mix of PEG 300 and Ethanol with 0.5% of ascorbic acid and 0.5% phosphatidyl choline) control, day 1: rats (19) inhaled vehicle for 2 hr for one day; 2. […] Vehicle control, day 28: rats (16) inhaled vehicle as for group 1 for a period of 28 days; 5.
(§2) Tissues were collected, frozen in dry ice and kept at −70° C. until used. 500 mg aliquots were diced in small pieces and homogenized in 300 μl of cold PBS, using the hand held homogenizer for 2˜3 minutes. Sample and washes were centrifuged at 5000×g for 20 minutes. The pellet was suspended in 400 μl of ice-cold Buffer A [2 μl 0.5M EDTA, 10 μl 100 mM EGTA, 50 μl 100MM PMSF, 10 μl 1M DTT, 10 ml (10 mM HEPES pH 7.9+10 mM KCl)], and left at ice temperature for 15 minutes. 25 μl of 10% solution of NP-40 was added and samples were mixed in a vortex vigorously for 10 seconds. Samples were centrifuged at 14,000×g for 1 minute at 4° C. and the pellet treated once more in this fashion (resuspended etc.). The supernatant was removed and 100 μl of ice-cold Buffer C [4 μl 0.5M EDTA, 20 μl 100 mM EGTA, 20 μl 100 mM PMSF, 2 μl 1M DTT, 2 ml (20 mM HEPES pH 7.9+0.4M NaCl)] was added. Pellets were resuspended by tapping gently on the bottom of the Eppendorf tubes. Samples were rocked vigorously in a bucket of ice on an orbital shaker for 30 minutes. Samples were centrifuged at 14,000×g for 5 minutes at 4° C.
(§3) Samples were prepared by adding one part of the Sample Buffer to one part of the sample and mixing well. Samples were heated at 95° C. for 5 minutes to induce denaturation. 5 μl of Rainbow Standard and 5 μl of Biotinylated Molecular Marker were added to parallel wells. 20 μg protein per sample was loaded in each lane. Electrophoresis was performed with voltage set at 125V for about 1˜1.5 hours. Gel transfer was executed at 25V for 2 hours. The membrane was stained in Ponceau S. for 5 minutes and destained with one wash of 5% acetic acid. The membrane was then washed in TBS solution until the staining disappeared. […]

RAR β [5] = experiment: Western blot of rat lung, inhaled 13-cis RA (experiment A), RAR β; format: in vivo; details: for upregulation of lung tissue RAR (second named, β): daily deposited dose 6.4 mg/kg/day
Experimental: as §1, §2, §3

RAR γ = experiment: Western blot of rat lung, inhaled 13-cis RA (experiment A), RAR γ; format: in vivo; details: for upregulation of lung tissue RAR (third named, γ): daily deposited dose 6.4 mg/kg/day
Experimental: as §1, §2, §3

TGase II = TGase II activity in cultured human breast cancer MCF-7 cells; format: cell-based; details: MCF-7 cells, 10^−6 M, 72 hours, over DMSO
Experimental: Cells were harvested and Transglutaminase II activity was measured as described below. Nebulizer solution, inhalation procedures, details of animal housing are described below.
Cultured cells were placed in 100 μl scraping buffer [A: 2800 μl (400 μl 0.5M Na-Phosphate, 500 μl 0.01M EDTA, 100 μl 1M DTT, 9 ml PBS total 10 ml)+B:700 μl (10 μl 20 mg/ml PMSF 790 μl PBS total 800 μl)] for each dish. Cells were broken by a sonicator and kept in ice until used. TGase II assay was conducted as described below and previously {8217}.
Enzyme assay mixtures were prepared by adding 80 μl of SUBSTRATE mixture (322.8 μl H2O, 120 μl 0.5M NaBorate, 60 μl 0.01M EDTA, 60 μl 0.1M CaCl2, 6 μl 1M DTT, 240 μl dimethyl casein, 30 μl Triton X-100, 1.21 μl [^3H]-Putrescine, 120 μl Putrescine) to 20 μl sample, 20 μl scraping buffer for blank control, 20 μl (18 μl scraping buffer+2 μl TGase II) for positive control. Samples were mixed in 15 ml tubes, the tubes were shaken before putting them into a 28° C. water bath for 30 minutes. Reactions were slowed down in an ice bath. 80 μl of the incubation mixture was adsorbed onto paper disks. These were immediately dropped into cold 10% TCA (0.1% Putrescine) and washed with agitation for 7 minutes, followed by 2 additional washes with 5% TCA (0.05% putrescine) for 5-7 minutes, and once more with cold (−20° C.) 95% ethanol for 5 minutes. Paper disks were dried and placed into 5 ml Aquasol, and counted in a Liquid Scintillation Counter. Protein concentration determination was conducted by the Bradford method.

[6] = daily deposited dose 1.9 mg/kg/day, day 28

Compound: CC1=C(/C=C/C(C)=C/C=C/C(C)=C\C(=O)O)C(C)(C)CCC1 [13-cis RA, 13-cis-Retinoic Acid]
- steady-state blood levels [1]: 100 to 200 ng/mL
- present as albumin bound (albumin): 99%
- Body Weights (Mean ± SD) (N) (BaP-Treated Mice, Day 102, High Dose): 19.3 ± 1.6 (12)^a,e gms
- Body Weights (Mean ± SD) (N) (BaP-Treated Mice, Day 102, Low Dose, vehicle control 22.5): 21.8 ± 1.2 (21) gms
- Body Weights (Mean ± SD) (N) (BaP-Treated Mice, Day 102, Mid Dose): 20.1 ± 1.8 (20)^a,b gms
- Body Weights (Mean ± SD) (N) (NNK-Treated Mice, Day 102, High Dose): 17.5 ± 1.2 (14)^a,d gms
- Body Weights (Mean ± SD) (N) (NNK-Treated Mice, Day 102, Low Dose, vehicle control 22.7): 22.1 ± 1.5 (21) gms
- Body Weights (Mean ± SD) (N) (NNK-Treated Mice, Day 102, Mid Dose): 20.3 ± 1.2 (20)^a,b gms
- Body Weights (Mean ± SD) (N) (Urethane-Treated Mice, Day 60, High Dose): 18.9 ± 1.7 (12)^a,c gms
- Body Weights (Mean ± SD) (N) (Urethane-Treated Mice, Day 60, Low Dose, vehicle control 20.8): 21.0 ± 1.2 (21) gms
- Body Weights (Mean ± SD) (N) (Urethane-Treated Mice, Day 60, Mid Dose): 20.7 ± 1.5 (21) gms
- toxicity (high dose, daily exposures during first two weeks, listed as isotretinoin): excessive toxicity to the snout and forelimbs; also recorded: severe toxicity
- mice that died (high dose, daily exposures for the first two weeks): ~35%
- side effects (low dose): without any evidence of side effects
- mice that died before the end of exposure (mid dose): 3%
- time until which dose was tolerated (mice then began losing weight) (mid dose): ~12 wks
- weights below those of vehicle controls at the end of exposure (mid dose, NNK- and BaP-treated mice): 11%
- upregulation of lung tissue RAR α over solvent (vehicle) (RAR α [2]): 3.9 fold
- upregulation of lung tissue RAR β over solvent (vehicle) (RAR β [3]): 3.3 fold
- induction of lung RAR (first named, α) (RAR α [4]; [6]): 4.7 fold
- upregulation of lung tissue RAR (first named, α) (RAR α [4]; day 1): 3.4 fold
- upregulation of lung tissue RAR (first named, α) (RAR α [4]; day 17): 4.2 fold
- induction of lung RAR (second named, β) (RAR β [5]; [6]): 8.0 fold
- upregulation of lung tissue RAR (second named, β) (RAR β [5]; day 1): 7.2 fold
- upregulation of lung tissue RAR (second named, β) (RAR β [5]; day 17): 10.0 fold
- induction of lung RAR (third named, γ) (RAR γ; [6]): 8.1 fold
- upregulation of lung tissue RAR (third named, γ) (RAR γ; day 1): 9.7 fold
- upregulation of lung tissue RAR (third named, γ) (RAR γ; day 17): 12.9 fold
- stimulating TGase II activity (TGase II): 6.1 Fold
